Measurements taken from patent US8563545B2, “Compound useful for the treatment of degenerative and inflammatory diseases” (Galapagos NV, priority 2009, dated 2013).
Read-outs that look alike come from different tables or passages of the source.

What was measured:
[1] = Pharmacokinetic study in rodents; assay type: in vivo, rat; details: for F: PO 5 mg/kg vs IV 1 mg/kg; for Cmax: read-out: C0 or Cmax; for AUC(0-t): read-out: AUC (0-24 h); for AUC: read-out: AUC (0-z); for Vd: read-out: Vss
Experimental: Sprague-Dawley rats (male, 5-6 weeks old) were obtained from Janvier (France). Rats were acclimatized for at least 7 days before treatment and were kept on a 12 hr light/dark cycle (0700-1900). Temperature was maintained at approximately 22° C., and food and water were provided ad libitum. […] After the surgery, rats were housed individually. Rats were deprived of food for at least 16 hours before oral dosing and 6 hours after. Water was provided ad libitum.
Test compounds were orally dosed as a single esophageal gavage at 5 mg/kg under a dosing volume of 5 ml/kg and intravenously dosed as a bolus via the caudal vein at 1 mg/kg under a dosing volume of 5 mL/kg. Each group consisted of 3 rats. […] For compound 11, blood samples were collected at the retro-orbital sinus with lithium heparin as anti-coagulant at the following time points 0.25, 1, 3 and 6 hrs (oral route). Whole blood samples were centrifuged at 5000 rpm for 10 min and the resulting plasma samples were stored at −20° C. pending analysis.
Plasma concentrations of each test compound were determined by an LC-MS/MS method in which the mass spectrometer was operated in positive electrospray mode.
Pharmacokinetic parameters were calculated using Winnonlin® (Pharsight®, United States).

TYK2 = TYK2 (Homo sapiens (Human), UniProt P29597); experiment: TYK2 inhibition assay; assay type: biochemical
Sequence of TYK2 (P29597 871-1187): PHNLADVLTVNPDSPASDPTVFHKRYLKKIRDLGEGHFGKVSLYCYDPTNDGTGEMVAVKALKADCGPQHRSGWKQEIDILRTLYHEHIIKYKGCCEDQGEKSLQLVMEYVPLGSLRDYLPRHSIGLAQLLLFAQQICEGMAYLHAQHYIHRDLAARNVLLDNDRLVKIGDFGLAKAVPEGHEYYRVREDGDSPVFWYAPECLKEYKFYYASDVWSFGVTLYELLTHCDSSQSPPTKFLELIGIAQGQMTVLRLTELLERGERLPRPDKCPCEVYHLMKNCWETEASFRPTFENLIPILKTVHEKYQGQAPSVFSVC
Experimental: After 90 min at 30° C., reactions were stopped by adding 25 μL/well of 150 mM phosphoric acid. […] Plates were washed 6 times with 300 μL per well of a 75 mM phosphoric acid solution and the bottom of the plates was sealed. 40 μL/well of Microscint-20 was added, the top of the plates was sealed and readout was performed using the Topcount (Perkin Elmer). Kinase activity was calculated by subtracting counts per minute (cpm) obtained in the presence of a positive control inhibitor (10 μM staurosporine) from cpm obtained in the presence of vehicle. The ability of a test compound to inhibit this activity was determined as:
(§1) Percentage inhibition=((cpm determined for sample with test compound present−cpm determined for sample with positive control inhibitor)divided by(cpm determined in the presence of vehicle−cpm determined for sample with positive control inhibitor))*100.
Dose dilution series were prepared for the compounds enabling the testing of dose-response effects in the TYK2 assay and the calculation of the IC50 for each compound.

JAK3 = JAK3 (Homo sapiens (Human), UniProt P52333); experiment: JAK3 inhibition assay; assay type: biochemical
Sequence of JAK3 (P52333 781-1124): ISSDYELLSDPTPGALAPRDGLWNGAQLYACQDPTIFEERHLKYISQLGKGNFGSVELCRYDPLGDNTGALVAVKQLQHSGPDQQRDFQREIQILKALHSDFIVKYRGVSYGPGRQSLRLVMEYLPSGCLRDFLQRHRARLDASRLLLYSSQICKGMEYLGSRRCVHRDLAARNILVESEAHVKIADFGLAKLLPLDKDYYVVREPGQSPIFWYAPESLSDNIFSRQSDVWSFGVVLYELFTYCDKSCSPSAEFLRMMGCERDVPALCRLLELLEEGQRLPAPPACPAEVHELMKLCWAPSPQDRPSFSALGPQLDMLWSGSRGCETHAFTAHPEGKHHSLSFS
Experimental: (§2) Plates were washed 6 times with 300 μL per well of a 75 mM phosphoric acid solution and the bottom of the plates was sealed. 40 μL/well of Microscint-20 was added, the top of the plates was sealed and readout was performed using the Topcount (Perkin Elmer). Kinase activity was calculated by subtracting counts per minute (cpm) obtained in the presence of a positive control inhibitor (10 μM staurosporine) from cpm obtained in the presence of vehicle. The ability of a test compound to inhibit this activity was determined as:
as §1
Dose dilution series were prepared for the compounds enabling the testing of dose-response effects in the JAK3 assay and the calculation of the IC50 for each compound.

rat CIA model = experiment: Rat collagen induced arthritis (CIA) model; assay type: in vivo; design: key to Clinical Assessment End point score / Clinical Assessment AUC Score / Paw swelling / Larsen' Score: a “*” indicates that there was a statistically significant improvement in the score, p 0.05 vs. untreated control
Experimental: Completed Freund's adjuvant (CFA) and incomplete Freund's adjuvant (IFA) were purchased from Difco. Bovine collagen type II (CII), lipopolysaccharide (LPS), and Enbrel was obtained from Chondrex (Isle d'Abeau, France); Sigma (P4252, L′Isle d'Abeau, France), Whyett (25 mg injectable syringe, France) Acros Organics (Palo Alto, Calif.), respectively. All other reagents used were of reagent grade and all solvents were of analytical grade.
Dark Agouti rats (male, 7-8 weeks old) were obtained from Harlan Laboratories (Maison-Alfort, France). Rats were kept on a 12 hr light/dark cycle (0700-1900). Temperature was maintained at 22° C., and food and water were provided ad libitum.
One day before the experiment, CII solution (2 mg/mL) was prepared with 0.05 M acetic acid and stored at 4° C. Just before the immunization, equal volumes of adjuvant (IFA) and CII were mixed by a homogenizer in a pre-cooled glass bottle in an ice water bath. Extra adjuvant and prolonged homogenization may be required if an emulsion is not formed. 0.2 mL of the emulsion was injected intradermally at the base of the tail of each rat on day 1, a second booster intradermal injection (CII solution at 2 mg/mL in CFA 0.1 mL saline) was performed on day 9. This immunization method was modified from published methods (Sims et al, 2004; Jou et al., 2005).
The therapeutic effects of the compounds were tested in the rat CIA model. Rats were randomly divided into equal groups and each group contained 10 rats. All rats were immunized on day 1 and boosted on day 9. Therapeutic dosing lasted from day 16 to day 30. The negative control group was treated with vehicle (MC 0.5%) and the positive control group with Enbrel (10 mg/kg, 3× week, s.c.). A compound of interest was typically tested at 3 doses, e.g. 3, 10, 30 mg/kg, p.o.
Arthritis is scored according to the method of Khachigian 2006, Lin et al 2007 and Nishida et al. 2004). The swelling of each of the four paws is ranked with the arthritic score as follows: 0-no symptoms; 1-mild, but definite redness and swelling of one type of joint such as the ankle or wrist, or apparent redness and swelling limited to individual digits, regardless of the number of affected digits; 2-moderate redness and swelling of two or more types of joints; 3-severe redness and swelling of the entire paw including digits; 4-maximally inflamed limb with involvement of multiple joints (maximum cumulative clinical arthritis score 16 per animal) (Nishida et al., 2004).
The area under the curve (AUC) from day 1 to day 14 was calculated for each individual rat. The AUC of each animal was divided by the average AUC obtained for the vehicle in the study from which the data on that animal was obtained and multiplied by 100 (i.e. the AUC was expressed as a percentage of the average vehicle AUC per study).
The clinical score difference for each animal was divided by the average clinical score difference obtained for the vehicle in the study from which the data on that animal was obtained and multiplied by 100 (i.e. the difference was expressed as a percentage of the average clinical score difference for the vehicle per study).
X-ray photos were taken of the hind paws of each individual animal. […]

JAK1 = JAK1 (Homo sapiens (Human), UniProt P23458); experiment: JAK1 inhibition assay; assay type: biochemical
Sequence of JAK1 (P23458 850-1154): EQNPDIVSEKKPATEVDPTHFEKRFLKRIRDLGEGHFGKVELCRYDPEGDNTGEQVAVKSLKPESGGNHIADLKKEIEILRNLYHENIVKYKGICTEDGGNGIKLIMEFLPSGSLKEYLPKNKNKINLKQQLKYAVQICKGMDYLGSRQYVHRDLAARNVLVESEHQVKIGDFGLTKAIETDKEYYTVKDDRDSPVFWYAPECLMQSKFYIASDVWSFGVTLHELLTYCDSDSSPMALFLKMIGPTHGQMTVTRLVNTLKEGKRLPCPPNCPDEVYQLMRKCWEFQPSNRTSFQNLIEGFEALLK
Experimental: as §2, §1
Dose dilution series were prepared for the compounds enabling the testing of dose-response effects in the JAK1 assay and the calculation of the IC50 for each compound.

[2] = male, Sprague-Dawley, rat, plasma, po, 5 mg/kg
[3] = male, plasma, Sprague-Dawley rat, IV 1 mg/kg (C0)
[4] = male, plasma, Sprague-Dawley rat, IV 1 mg/kg
[5] = male, plasma, Sprague-Dawley rat, PO 5 mg/kg
[6] = 0.1 mg/kg/day, normalized score
[7] = 0.3 mg/kg/day, normalized score

## O=C(Nc1nc2cccc(-c3ccc(CN4CCOCC4)cc3)n2n1)C1CC1 [Compound 2, N-(5-(4-(morpholinomethyl)phenyl)-[1,2,4]triazolo[1,5-a]pyridin-2-yl)cyclopropanecarboxamide]
[1]; Sprague-Dawley rat, IV 1 mg/kg
  Cl: 2.12
[1]; Sprague-Dawley rat
  F: 62%
[1]; [2]
  Cmax: 1320 ng/mL
[1]; [3]
  Cmax: 863 ng/mL
[1]; [4]
  AUC(0-t): 474 ng·h/mL
  AUC: 470 ng·h/mL
  Vd: 1.46 L/kg
[1]; [5]
  Tmax: 19.8 min
  AUC(0-t): 1460 ng·h/mL
  AUC: 1440 ng·h/mL
TYK2
  IC50: 2.1 µM
JAK3
  IC50: 2.84 µM
Rat CIA model; 10 mg/kg/day
  Clinical Assessment End point score: *
Rat CIA model; 30 mg/kg/day
  Clinical Assessment End point score: *
  Larsen' Score: *
  Paw swelling: *
Rat CIA model; dose of 10 mg/kg
  normalized clinical score values: statistically significant improvements
Rat CIA model; dose of 30 mg/kg
  Larsen score: statistically significant increase
  paw swelling readout: statistically significant increase

## O=C(Nc1nc2cccc(-c3ccc(CN4CCS(=O)(=O)CC4)cc3)n2n1)C1CC1 [Compound 1, Cyclopropanecarboxylic acid {5-[4-(1,1-dioxo-1-thiomorpholin-4-ylmethyl)-phenyl]-[1,2,4]triazolo [1,5-a]pyridin-2-yl}-amide]
[1]; Sprague-Dawley rat
  F: 45%
[1]; [2]
  Cmax: 310 ng/mL
[1]; [4]
  clearance: 22.5 mL/min/kg
  AUC: 722 ng·h/mL
  Vd: 1.76 L/kg
[1]; [3]
  Cmax: 1410 ng/mL
[1]; [5]
  Tmax: 132 min
  AUC(0-t): 1680 ng·h/mL
  AUC: 1430 ng·h/mL
Rat CIA model
  improvement in efficacy over Compound 2 when the oral doses are compared: 100 fold
Rat CIA model; [6]
  Clinical Assessment AUC Score: *
  Clinical Assessment End point score: *
Rat CIA model; 0.3 mg/kg/day
  Paw swelling: *
Rat CIA model; [7]
  Clinical Assessment AUC Score: *
  Clinical Assessment End point score: *
Rat CIA model; 1 mg/kg/day
  Paw swelling: *
Rat CIA model; 1 mg/kg/day, normalized score
  Clinical Assessment AUC Score: *
  Clinical Assessment End point score: *
Rat CIA model; 3 mg/kg/day
  Larsen' Score: *
  Paw swelling: *
Rat CIA model; 3 mg/kg/day, normalized score
  Clinical Assessment AUC Score: *
  Clinical Assessment End point score: *
Rat CIA model; dose of 0.1 mg/kg
  normalized clinical score values (AUC or difference from day 1 to day 14): statistically significant improvements
Rat CIA model; dose of 0.3 mg/kg
  paw swelling readout: statistically significant increase
Rat CIA model; dose of 3 mg/kg
  Larsen score: statistically significant increase

## O=C(Nc1nc2cccc(-c3ccc(C(=O)N4CCS(=O)(=O)CC4)cc3)n2n1)C1CC1 [Compound 10, Cyclopropanecarboxylic acid {5-[4-(1,1-dioxo-1-thiomorpholine-4-carbonyl)-phenyl]-[1,2,4]triazolo [1,5-a]pyridin-2-yl}-amide]
JAK1
  IC50: 0.0182 µM

## O=C(Nc1nc2cccc(-c3ccc(CN4CCC(F)(F)CC4)cc3)n2n1)C1CC1 [Compound 11, Cyclopropanecarboxylic acid {5-[4-(4,4-difluoro-piperidin-1-ylmethyl)-phenyl]-[1,2,4]triazolo [1,5-a]pyridin-2-yl}-amide]
JAK1
  IC50: 0.00769 µM
[1]; [2]
  Cmax: 547 ng/mL
[1]; [5]
  Tmax: 15 min
  AUC: 690 ng·h/mL
TYK2
  IC50: 0.126 µM
JAK3
  IC50: 0.195 µM
